Measured values reported in patent US20200399642A1, “METHODS AND COMPOSITIONS FOR TREATING AND PREVENTING METASTATIC TUMORS” (IMMUNE PHARMACEUTICALS, INC., priority 2017, published 2020).
Where two headings read alike, the source gives them in different places.

Key:
murine melanoma cells = settings: in vivo administration; cited from earlier work
melanoma = settings: other melanoma models; cited from earlier work
[1] = tested on: B-RAF- and K-RAS-induced lung cancer; settings: mouse models of B-RAF- and K-RAS-induced lung cancer; cited from earlier work
[2] = tested on: xenografted human melanoma cells; settings: immunodeficient mice; cited from earlier work
B16F10 cells = test: Lung metastasis after i.v. inoculation of B16F10 melanoma cells; assay type: in vivo, mouse; settings: for number of lung metastases: 3 weeks
Experimental: (§1) C57BL/6 mice were obtained from The Charles River Laboratories. B6.129S6-Cybb^tm1Din(Nox2^−/− or Nox2-KO) mice that lack the myeloid gp91^phox subunit NOX2 and, thus, a functional ROS-forming NOX2 were obtained from The Jackson Laboratory. […] Naïve C57BL/6, Nox2-KO, and Ifng-KO mice (6-12 weeks of age) were treated intraperitoneally (i.p.) with PBS (control), HDC (Sigma, 1,500 μg/mouse), IL15 (0.04 μg/mouse), alone or combined, on the day before, the day after, and 3 days after intravenous (i.v.) inoculation of B16F10 cells (5×10^4-15×10^4 cells/mouse) or B16F1 cells (20×10^4-30×10^4 cells/mouse). Three weeks after tumor inoculation, mice were euthanized by cervical dislocation followed by harvesting of lungs and spleens. Lung metastasis was determined by counting visible pulmonary metastatic foci under a light microscope. The experimental design is outlined in FIG. 1A.
Gr1^+ cells were depleted by i.p. injections of 400 μg anti-Gr1 antibody (BioXCell, Clone RB6-8C5) 2 days before B16 cell inoculation. […] NK cells were depleted by i.p. injections of 250 μg anti-NK1.1 antibody (BioXCell, Clone PK136) 4 days and 2 days before B16F10 cell inoculation.
Spleens were harvested from WT C57BL/6 mice and single-cell suspensions were prepared. Splenocytes were enriched for NK cells by passage through nylon wool columns (Polysciences). NK cells were then negatively selected using an NK-cell isolation kit II (Miltenyi Biotech) according to the manufacturer's instructions to a purity of >70%. Five million enriched NK cells were injected i.v. 12 hours before inoculation of B16F10 cells. WT NK cells in Ifng^−/− mice were detected 2 days after adoptive transfer by collecting peripheral blood followed by DNA extraction and PCR. The primer pair used for detection of WT Ifng was 5′ […] 3′ (SEQ ID NO:02) and 5′ […] 3′ (SEQ ID NO:03). For detection of the disrupted IFNγ gene (Ifng−/−) the primer pair 5′ […] 3′ (SEQ ID NO:04) and 5′ […] 3′ (SEQ ID NO:05) was used.

B16F1 cells = settings: 200,000 cells in WT, 300,000 in Nox2-/- mice; 3 weeks
Experimental: as §1

NK cells = settings: WT mice, 3 weeks after tumor cell inoculation; % of live CD45+ cells
Experimental: as §1

lung NK cells = test: IFNγ production ex vivo in cocultures of lung cells and B16 cells (ELISA); set-up: species or system mouse; settings: WT mice treated with HDC in vivo; lungs 30 minutes after B16F10 inoculation; coculture with B16 cells
Experimental: Mice were pretreated with HDC (1,500 μg) or PBS on the day before i.v. inoculation of B16F10 cells. Thirty minutes after tumor cell inoculation mice were sacrificed and single-cell lung cell suspensions were prepared. Lung cells were cocultured overnight with B16 cells (500,000 cells/mL) in flat bottom 96-well plates at effector:target cell ratios of 1:1 to 50:1. Supernatants were collected after 24 hours and the IFNγ content was determined by ELISA (Mouse IFNγ DuoSet ELISA, R&D Systems).

[3] = tested on: ROS production of WT lung cells; settings: in vitro, HDC 10-1,000 μmol/L added 5 minutes before WKYMVm
Experimental: (§2) Superoxide anion production was determined by use of the isoluminol-electrogenerated chemiluminescence technique as described elsewhere. Briefly, single-cell suspensions of lungs were diluted to 10^7 cells/mL in Krebs-Ringer glucose buffer supplemented with isoluminol (10 mg/mL; Sigma-Aldrich) and horseradish peroxidase (HRP, 4 U/mL, Boehringer) and added to 96-well plates that were incubated at 37° C. Phorbol myristate acetate (PMA, 5×10^−8 M, Sigma-Aldrich) or the formyl peptide receptor agonist Trp-Lys-Tyr-Met-Val-D-Met (WKYMVm) (10^−5 M, Tocris Bioscience) were added for induction of ROS production. Light emission was recorded continuously using a FLUOstar Omega plate reader (BMG). In some experiments, HDC (10-1,000 μmol/L, final concentrations) was added 5 minutes prior to the addition of WKYMVm.

[4] = tested on: ROS formation of lung cell suspensions; settings: mice pretreated with HDC the day before B16 inoculation; PMA; 30 minutes and 24 hours
Experimental: (§3) For assessment of the impact of NOX2 inhibition on immune parameters during the early phase of tumor progression, mice received HDC at 1,500 μg/mouse or PBS (control) 1 day before the inoculation of B16F10 cells followed by dissection of lungs at 30 minutes or 24 hours after tumor cell inoculation as shown in FIG. 2A.
(§4) Lung tissues were dissociated into single cells by combining enzymatic degradation of extracellular matrix with mechanical dissociation using gentle MACS Technology (Miltenyi Biotech) based on instructions provided by the manufacturer.
as §2

CD11b+Gr1+ myeloid cells = settings: WT mice, HDC 24 hours before B16F10 inoculation
Experimental: as §3, §4
The following fluorochrome-labeled antimouse mAbs were purchased from BD Biosciences: anti-CD45 (30-F11), anti-CD11c (HL3), anti-IaIe (2G9), anti-CD3 (145-2311), anti-CD4 (RM4-5), anti-CD8 (53-6.7), anti-NK1.1 (PK136), anti-CD19 (1D3), anti-CD11b (M1/70), anti-Gr1 (RB6-8C5), anti-CD40 (3/23), and anti-Ly6C (AL-21). Anti-CD33 (29A1.4) was from Ebiosciences; anti-F4/80 (BM8) and anti-CD69 (H1.2F3) were from BioLegend. LIVE/DEAD Fixable Yellow Dead Cell Stain Kit or DAPI (both from Invitrogen) were used as cell viability markers in flow cytometry analyses. A minimum of 100,000 gated live cells were collected on a four-laser BD LSRFortessa (405, 488, 532, and 640 nm). Data were analyzed using FACSDiva Version 8.0.1 software (BD Biosciences).

[5] = Nox2-KO mice, 150,000 B16F10 cells i.v., i.p. treatment days -1, 1, 3
[6] = WT mice, 100,000 B16F10 cells i.v., i.p. treatment days -1, 1, 3 (HDC 1,500 μg/mouse, IL15 0.04 μg/mouse)

| Compound | tumorigenicity of murine melanoma cells (murine melanoma cells) | lymph node metastasis (melanoma) | tumor progression [1] | metastasis of xenografted human melanoma cells [2] | number of lung metastases (B16F10 cells; [5]) | number of lung metastases (B16F10 cells; [6]) | lung metastasis (B16F10 cells; Gr1+-depleted WT mice, B16F10) | antimetastatic efficacy of HDC (B16F10 cells; Ifng-KO mice after adoptive transfer of IFNγ-producing WT NK cells) | antimetastatic efficacy of HDC (B16F10 cells; Ifng-KO mice after adoptive transfer of Ifng-KO NK cells) | melanoma metastasis (B16F10 cells; Ifng-KO mice, B16F10) | melanoma metastasis (B16F10 cells; animals depleted of NK cells (anti-NK1.1), WT and Nox2-/-, B16F10) | lung metastasis formation by B16F1 (B16F1 cells) | NK-cell counts in lungs (NK cells) | IFNγ produced ex vivo by lung NK cells (lung NK cells) | ROS formation from WT lung cells [3] | ROS formed ex vivo in lung cell suspensions [4] | degree of influx of myeloid cells into lungs (CD11b+Gr1+ myeloid cells) | subcutaneous growth of EL-4 thymoma tumors (EL-4 thymoma tumors; Nox2-KO mice) | subcutaneous growth of EL-4 thymoma tumors (EL-4 thymoma tumors; WT mice) |
| --- | --- | --- | --- | --- | --- | --- | --- | --- | --- | --- | --- | --- | --- | --- | --- | --- | --- | --- | --- |
| CC(=O)N[C@@H](CS)C(=O)O [N-acetyl-cysteine] | reduces the tumorigenicity | enhances lymph node metastasis | accelerates tumor progression | accelerates the metastasis | – | – | – | – | – | – | – | – | – | – | – | – | – | – | – |
| IL15: NK cell-activating cytokine IL15 | – | – | – | – | exerted antimetastatic activity | exerted antimetastatic activity | – | – | – | – | – | – | – | – | – | – | – | – | – |
| Cl.Cl.NCCc1c[nH]cn1 [HDC, histamine dihydrochloride] | – | – | – | – | not observed | decreased the number of lung metastases | did not affect metastasis | significantly restored the antimetastatic efficacy | but not the transfer of Ifng-KO NK cells | did not reduce melanoma metastasis | did not inhibit melanoma metastasis | NOX2-dependent, antimetastatic effect | increased NK-cell counts in lungs | higher concentrations of IFNγ | dose-dependently suppressed | reduced | did not alter | but not in Nox2-KO mice | reduces the subcutaneous growth |
